# US20100267803A1, “Regulators Of Fat Metabolism As Anti-Cancer Targets” (The Research Foundation of State University Of New York, priority 2008, published 2010)
# Experiments:
# Format in all cases: cell-based, human
# NR1D1 mRNA = test: qRT-PCR of NR1D1 mRNA in BT474 cells; conditions: 20 μM GW9662 for 48 h
# Method: (§1) FIG. 2 NR1D1 and PBP are necessary for survival of ERBB2-positive cells. (a) PBP and NR1D1 mRNA levels of BT474 cells transfected with luciferase (control), PBP or NR1D1 shRNAs for 48 h, analyzed by qRT-PCRs. (Error bars are s.d from 3 experiments; ***P<0.003, **P=0.01, *P=0.02). (b) BMAL1 luciferase reporter activity of BT474 cells transfected with either empty vector (control), or NR1D1 shRNA for 48 h.
# (§2) FIG. 3 PPAR. inhibition impacts NR1D1 expression and ERBB2-positive cells viability. (a) Cell counts of BT474, MDA-MB-361, MCF-7 and HMEC cells treated with vehicle, 10 and 20 μM of the PPAR. antagonist GW9662 for 72 hrs. Results represented as % of control (vehicle). (Error bars are s.d from 3 individual experiments; *P>0.2, **P<0.05, ***P<0.002). (b) BT474 cells treated with vehicle or 20 μM of GW9662 for 48 h were immuno-stained for cleaved Caspase-3. (c) Quantification of Caspase-3 signal. (Error bars are s.d from 3 individual experiments; ***P=0.002). (d) aP2 and NR1D1 mRNA levels of BT474 cells treated with vehicle (control) and 20 μM of GW9662 for 48 h, analyzed by qRT-PCRs. […]
# aP2 (FABP4) mRNA = test: qRT-PCR of aP2 mRNA in BT474 cells; conditions: 20 μM GW9662 for 48 h
# Method: (§3) FIG. 3 PPAR. inhibition impacts NR1D1 expression and ERBB2-positive cells viability. (a) Cell counts of BT474, MDA-MB-361, MCF-7 and HMEC cells treated with vehicle, 10 and 20 μM of the PPAR. antagonist GW9662 for 72 hrs. Results represented as % of control (vehicle). (Error bars are s.d from 3 individual experiments; *P>0.2, **P<0.05, ***P<0.002). (b) BT474 cells treated with vehicle or 20 μM of GW9662 for 48 h were immuno-stained for cleaved Caspase-3. (c) Quantification of Caspase-3 signal. (Error bars are s.d from 3 individual experiments; ***P=0.002). (d) aP2 and NR1D1 mRNA levels of BT474 cells treated with vehicle (control) and 20 μM of GW9662 for 48 h, analyzed by qRT-PCRs. (Error bars are s.d from 3 experiments; ***P<0.0006. (e) BMAL1-luc activity of BT474 cells treated with vehicle or 20 μM of GW9662 for 48 h. (Error bars are s.d from 3 individual experiments; **P=0.03). (f) Total ERBB2 western blot of BT474 cells treated with vehicle or 20 μM GW9662 for 72h. GAPDH was used as control.
# (§4) Cell viability—apoptosis assays. […] At least 30 fields were imaged per single experiment. […] Immunoblotting. […] PCR reaction was run using standard conditions.
# FASN mRNA = test: qRT-PCR of FASN mRNA in BT474 cells; conditions: shRNA or 20 μM GW9662 for 48 h
# Method: (§5) FIG. 4 NR1D1 and PBP coordinate fatty acid metabolism in breast cancer cells. (a) BT474, MDA-MB-361, MCF-7 and HMEC cells were stained with Oil-Red O lipid and hematoxylin nuclear stains. (b) Fat stores were quantified by BODIPY 493/503 lipid probe staining (Error bars are s.d from 3 individual experiments). (c) FASN, ACLY, ACACA and FADS2 mRNA levels of BT474 cells treated with luciferase (control), PBP or NR1D1 shRNAs, or with vehicle and 20 μM of GW9662 for 48 h, analyzed by qRT-PCRs. (Error bars are s.d from 3 experiments; ***P<0.001, **P=0.005) (d) BT474 cells were transfected with FASN, ACLY and ACACA shRNAs and co-transfected with GFP. Transfected cells were counted at 24 h and 72 h and the 72h-to-24 h ratio for each shRNA was calculated and expressed as % of the control shRNA (luciferase). (Error bars are s.d from 3 individual experiments; **P<0.01, ***P<0.002). (e) BODIPY images and (f) quantification of BT474 cells transfected with luciferase (control), PBP or NR1D1 shRNAs and co-transfected with DsRed (Error bars are s.d from 3 individual experiments; ***P<0.03). Arrows indicate transfected cells.
# as §4
# ACLY mRNA = test: qRT-PCR of ACLY mRNA in BT474 cells; conditions: shRNA or 20 μM GW9662 for 48 h
# Method: as §5, §4
# ACACA mRNA = test: qRT-PCR of ACACA mRNA in BT474 cells; conditions: shRNA or 20 μM GW9662 for 48 h
# Method: as §5, §4
# FADS2 mRNA = test: qRT-PCR of FADS2 mRNA in BT474 cells; conditions: shRNA or 20 μM GW9662 for 48 h
# Method: as §5, §4
# ERBB2 = ERBB2 western blot of BT474 cells
# Method: as §3, §4
# BMAL1 reporter = test: BMAL1 luciferase reporter assay in BT474 cells; conditions: 20 μM GW9662 for 48 h
# Method: as §1
# as §2, with “(Error bars are s.d from 3 individual experiments; ***P=0.002).” left out
# Reporter assays. […] Cells were lysed 48 h post-transfection and firefly (reporter) and renilla luciferase activities were measured using the Dual-Luciferase Reporter Assay kit (Promega) on a BioTek Synergy HT reader. The ratio of Firefly to Renilla luciferase activity was calculated and presented as percentage of control.
# BT474 cells = test: Apoptosis by cleaved Caspase-3 or activated Bax immunofluorescence; conditions: 48 h of shRNA or 20 μM GW9662
# Method: Results are shown as percentage of control. (**P=0.03). (c) BT474 cells were transfected with luciferase (control), PBP and NR1D1 shRNAs and co-transfected with GFP. Green cells were counted at intervals and expressed as percentage of control. (Error bars are s.d from 3 individual experiments; *P<0.08, **P<0.03, ***P<0.005). (d) BT474 cells were transfected with luciferase (control), PBP or NR shRNAs for 48 h. Immunofluorescence was performed for cleaved Caspase-3 signal; cell nuclei were stained with Hoechst 33243. (e) Cells from […] were counted for cleaved Caspase-3 signal. (Error bars are s.d from 3 individual experiments; ***P<0.0003). (f) BT474 cells were transfected with luciferase (control) PBP, NR1D1 or PBP and NR1D1 shRNAs together and co-transfected with GFP. Transfected cells were counted at 24 h and 72 h and the 72 h-to-24 h ratio for each shRNA was calculated and expressed as % of the control shRNA (luciferase). (Error bars are s.d from 3 individual experiments; **P=0.01, ***P<0.002). (g) Cells from (f) were counted for cleaved Caspase-3 signal. (Error bars are s.d from 3 individual experiments; ***P<0.0001). (h) ERBB2 mRNA levels of BT474 cells transfected with luciferase (control), PBP or NR1D1 shRNAs for 48 h, analyzed by qRT-PCRs. (Error bars are s.d from 3 individual experiments; ***P=0.0001).
# as §2, with “(b) BT474 cells treated with vehicle or 20 μM of GW9662 for 48 h were immuno-stained for cleaved Caspase-3.” left out, “(Error bars are s.d from 3 individual experiments; ***P=0.002).” left out
# FIG. 5. (a) MDH1 and ME1 mRNA levels of BT474 cells treated with luciferase (control), PBP or NR1D1 shRNAs for 48 h, analyzed by qRT-PCRs. […] (d) Quantification of cleaved Caspase-3 signal from cells in (c). […]
# [1] = tested on: BT474, MDA-MB-361, MCF-7 and HMEC cells; test: Cell counts after PPARγ antagonist treatment; conditions: 10 and 20 μM for 72 hrs; % of vehicle
# Method: as §3, §4
smiles,measurement,setting,value
"O=C(Nc1ccccc1)c1cc([N+](=O)[O-])ccc1Cl [GW9662, reference compound]",NR1D1 message levels,NR1D1 mRNA,dramatically decreased
same,mRNA levels of aP2,aP2 (FABP4) mRNA,decreased mRNA levels of aP2
same,FASN transcript level,FASN mRNA,reduced
same,ACLY transcript level,ACLY mRNA,reduced
same,ACACA transcript level,ACACA mRNA,reduced
same,FADS2 transcript levels,FADS2 mRNA,downregulated
same,ERBB2 protein levels,ERBB2; 20 μM GW9662 for 72h,"Neither ERBB2 protein levels (FIG. 3f), nor ERBB2 phosphorylation (FIG. S3d) were significantly affected"
same,ERBB2 phosphorylation,ERBB2; GW9662 treatment,"Neither ERBB2 protein levels (FIG. 3f), nor ERBB2 phosphorylation (FIG. S3d) were significantly affected"
same,BMAL1 reporter activity,BMAL1 reporter,increased BMAL1 reporter activity
same,apoptosis,BT474 cells,apoptosis of BT474 cells
same,sensitivity of cells to drug treatment (cell counts),[1],ERBB2-positive cells were more sensitive to drug treatment than MCF-7 and HMEC cells
